Measurements as given in US4232040A, “Compositions for and a method of preventing diabetic complications” (Syntex (U.S.A.) Inc., priority 1978, dated 1980).

Tests used:
[1] = molecular target: T1, Aldose reductase (Oryctolagus cuniculus, UniProt P15122); test: Aldose reductase inhibition in vitro (rabbit lens enzyme, glyceraldehyde substrate, loss of absorbance at 340 millimicrons); assay type: biochemical, New Zealand rabbit; settings: 2 min, Table I, relative to non-inhibited control (0%); for inhibition at 100 µM: molar concentration of xanthone compound 1 × 10^-4; for inhibition at 10 µM: molar concentration of xanthone compound 1 × 10^-5; for inhibition at 1 µM: molar concentration of xanthone compound 1 × 10^-6
T1 construct: Aldose reductase is isolated by homogenizing the lens in 3 volumes of water; from tissue; host or cells: lens of mature New Zealand rabbits
Method: In brief, a solution of the enzyme is added to an appropriately buffered solution containing glyceraldehyde. The loss of ultra violet absorbance at 340 millimicrons is indicative of the rate of reaction of the aldehyde with the enzyme as previously reported by Hayman and Kinoshita, (J. Biol. Chem: 240, 877, (1965)).
Fifty lenses are obtained from mature, New Zealand, rabbits and are immediately frozen on dry ice. Aldose reductase is isolated by homogenizing the lens in 3 volumes of water for 30 seconds in a Waring blender followed by centrifugation at 10,000 xg for 15 minutes to remove insoluble material. Saturated ammonium sulfate is added to the supernatant fluid to 40% saturation. The suspension is centrifuged after 15 minutes, and the supernatant liquid recovered. Additional protein is removed by increasing the ammonium sulfate concentration to 50%, and centrifuging the mixture. Aldose reductase is precipitated from the 50% saturated solution by the addition of powdered ammonium sulfate to 75% saturation and is recovered by centrifugation. The precipitated enzyme is assayed by following the ultraviolet absorbance at 340 millimicrons after dissolving the enzyme in 0.05 M sodium chloride. The enzyme (0.50 ml) is added to a quartz cuvette containing phosphate buffer (0.067 M, pH 6.0), NADPH (2×10^-5 M), and water to a final volume of 3 ml and the cuvette inserted in a conventional ultra-violet spectrometer. The reaction is started by the addition of substrate (glyceraldehyde) to the contents of the cuvette and is followed by the determination of loss of absorbance at 340 millimicrons for 2 minutes at 37° C. The reaction rate observed is usually linear for at least 5 minutes.
All results are shown in Tables I, II, and III as % inhibition, i.e. based on a non-inhibited control sample, no inhibition, 0%.

[2] = tested on: lens aldose reductase; settings: in vitro studies; cited from earlier work

Row | Compound | inhibition at 100 µM [1] | inhibition at 10 µM [1] | inhibition at 1 µM [1] | inhibition of lens aldose reductase [2]
1 | CN(C)S(=O)(=O)c1ccc2oc3ccc(C(=O)N(CCO)CCO)cc3c(=O)c2c1 | 86% | 64% | 29% | 
2 | O=c1c(O)c(-c2ccc(O)c(O)c2)oc2cc(O)cc(O)c12 [quercetin] |  |  |  | among the most potent
3 | O=C(O)c1ccc2oc3ccc(S(=O)(=O)O)cc3c(=O)c2c1 [H 3 H] |  |  | 0% | 
4 | CN(C)S(=O)(=O)c1ccc2oc3ccc(C(=O)O)cc3c(=O)c2c1 | 94% | 87% | 67% | 
5 | C[C@@H]1O[C@@H](Oc2c(-c3cc(O)c(O)c(O)c3)oc3cc(O)cc(O)c3c2=O)[C@H](O)[C@H](O)[C@H]1O [myrecetrin] |  |  |  | among the most potent
6 | C[C@@H]1O[C@@H](Oc2c(-c3ccc(O)c(O)c3)oc3cc(O)cc(O)c3c2=O)[C@H](O)[C@H](O)[C@H]1O [quercetrin] |  |  |  | among the most potent
7 | CC(C)CN(C)S(=O)(=O)c1ccc2oc3ccc(C(=O)O)cc3c(=O)c2c1 | 95% | 75% | 25% | 
